Patent US9963456B2, “Pyrrolopyrimidine compound or salt thereof and compositions containing the pyrrolopyrimidine compound or salt thereof” (TAIHO PHARMACEUTICAL CO., LTD., priority 2014, dated 2018)

biological target: NAE (heterodimer of APPBP1 and UBA3) (Homo sapiens (Human), UniProt Q8TBC4); experiment: Nedd8 conjugation inhibitory activity (AlphaScreen assay); assay type: biochemical; settings: purified NAE, GST-UBC12, Biotin-Nedd8, ATP
Sequence (Q8TBC4 whole entry): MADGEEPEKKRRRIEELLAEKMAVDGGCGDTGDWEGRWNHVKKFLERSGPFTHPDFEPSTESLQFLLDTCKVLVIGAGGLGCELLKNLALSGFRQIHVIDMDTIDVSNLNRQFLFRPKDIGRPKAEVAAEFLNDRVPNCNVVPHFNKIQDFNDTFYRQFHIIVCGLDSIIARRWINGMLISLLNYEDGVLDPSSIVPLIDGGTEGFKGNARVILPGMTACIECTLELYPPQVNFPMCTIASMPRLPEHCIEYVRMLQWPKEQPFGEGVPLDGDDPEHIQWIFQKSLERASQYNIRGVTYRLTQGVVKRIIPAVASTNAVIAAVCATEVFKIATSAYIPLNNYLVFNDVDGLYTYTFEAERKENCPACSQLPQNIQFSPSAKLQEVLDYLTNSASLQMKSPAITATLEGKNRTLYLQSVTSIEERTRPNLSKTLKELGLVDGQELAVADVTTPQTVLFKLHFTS
Sequence (Q13564 whole entry partner): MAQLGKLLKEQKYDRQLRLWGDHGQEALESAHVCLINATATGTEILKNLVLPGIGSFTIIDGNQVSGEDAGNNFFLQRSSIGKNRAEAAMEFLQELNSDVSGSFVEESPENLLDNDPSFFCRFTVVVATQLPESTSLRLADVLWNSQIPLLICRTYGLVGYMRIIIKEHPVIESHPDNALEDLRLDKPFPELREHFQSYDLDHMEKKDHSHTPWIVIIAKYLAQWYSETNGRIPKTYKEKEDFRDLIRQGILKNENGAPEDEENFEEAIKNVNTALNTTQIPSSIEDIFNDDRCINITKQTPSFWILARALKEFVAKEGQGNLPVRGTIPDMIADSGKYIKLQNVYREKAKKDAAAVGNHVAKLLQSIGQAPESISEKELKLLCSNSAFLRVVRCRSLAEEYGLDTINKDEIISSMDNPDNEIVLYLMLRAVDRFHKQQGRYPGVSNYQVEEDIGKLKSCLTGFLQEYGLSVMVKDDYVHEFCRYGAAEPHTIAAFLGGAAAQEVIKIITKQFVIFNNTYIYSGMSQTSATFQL

Structure (SMILES) | IC50 [µM]
COc1cccc(F)c1C#Cc1cn([C@@H]2C[C@H](CNS(N)(=O)=O)[C@@H](O)[C@H]2O)c2ncnc(N)c12 [Example 95, 4-Amino-7-[(1R,2S,3R,4R)-2,3-dihydroxy-4-[(sulfamoylamino)methyl]cyclopentyl]-5-[2-(2-fluoro-6-methoxy-phenyl)ethynyl]pyrrolo[2,3-d]pyrimidine] | 0.013
Nc1ncnc2c1c(C#Cc1cccc3cccnc13)cn2[C@@H]1C[C@H](CNS(N)(=O)=O)[C@@H](O)[C@H]1O [Example 96, 8-[2-[4-Amino-7-[(1R,2S,3R,4R)-2,3-dihydroxy-4-[(sulfamoylamino)methyl]cyclopentyl]pyrrolo[2,3-d]pyrimidin-5-yl]ethynyl]quinoline] | 0.0092
CSc1cccc(F)c1C#Cc1cn([C@@H]2C[C@H](CNS(N)(=O)=O)[C@@H](O)[C@H]2O)c2ncnc(N)c12 [Example 98, 4-Amino-7-[(1R,2S,3R,4R)-2,3-dihydroxy-4-[(sulfamoylamino)methyl]cyclopentyl]-5-[2-(2-fluoro-6-methylsulfanyl-phenyl)ethynyl]pyrrolo[2,3-d]pyrimidine] | 0.0083
CCSc1cccc(F)c1C#Cc1cn([C@@H]2C[C@H](CNS(N)(=O)=O)[C@@H](O)[C@H]2O)c2ncnc(N)c12 [Example 99, 4-Amino-7-[(1R,2S,3R,4R)-2,3-dihydroxy-4-[(sulfamoylamino)methyl]cyclopentyl]-5-[2-(2-ethylsulfanyl-6-fluoro-phenyl)ethynyl]pyrrolo[2,3-d]pyrimidine] | 0.019
Nc1ncnc2c1c(C#Cc1c(F)cc(N3CCOCC3)cc1F)cn2[C@@H]1C[C@H](CNS(N)(=O)=O)[C@@H](O)[C@H]1O [Example 101, 4-[4-[2-[4-amino-7-[(1R,2S,3R,4R)-2,3-dihydroxy-4-[(sulfamoylamino)methyl]cyclopentyl]pyrrolo[2,3-d]pyrimidin-5-yl]ethynyl]-3,5-difluoro-phenyl]morpholine] | 0.0076
CN1CCN(c2cc(F)c(C#Cc3cn([C@@H]4C[C@H](CNS(N)(=O)=O)[C@@H](O)[C@H]4O)c4ncnc(N)c34)c(F)c2)CC1 [Example 103, 4-Amino-5-[2-[2,6-difluoro-4-(4-methylpiperazin-1-yl)phenyl]ethynyl]-7-[(1R,2S,3R,4R)-2,3-dihydroxy-4-[(sulfamoylamino)methyl]cyclopentyl]pyrrolo[2,3-d]pyrimidine] | 0.013
Nc1ncnc2c1c(C#Cc1c(F)cc(OCn3cccn3)cc1F)cn2[C@@H]1C[C@H](CNS(N)(=O)=O)[C@@H](O)[C@H]1O [Example 104, 4-Amino-5-[2-[2,6-difluoro-4-(pyrazol-1-ylmethoxy)phenyl]ethynyl]-7-[(1R,2S,3R,4R)-2,3-dihydroxy-4-[(sulfamoylamino)methyl]cyclopentyl]pyrrolo[2,3-d]pyrimidine] | 0.0089
CCOc1cc(N2CCCCC2)cc(F)c1C#Cc1cn([C@@H]2C[C@H](CNS(N)(=O)=O)[C@@H](O)[C@H]2O)c2ncnc(N)c12 [Example 106, 4-Amino-7-[(1R,2S,3R,4R)-2,3-dihydroxy-4-[(sulfamoylamino)methyl]cyclopentyl]-5-[2-[2-ethoxy-6-fluoro-4-(1-piperidyl)phenyl]ethynyl]pyrrolo[2,3-d]pyrimidine] | 0.028
CCOc1cc(N2C3CCC2COC3)cc(F)c1C#Cc1cn([C@@H]2C[C@H](CNS(N)(=O)=O)[C@@H](O)[C@H]2O)c2ncnc(N)c12 [Example 110, 8-[4-[2-[4-Amino-7-[(1R,2S,3R,4R)-2,3-dihydroxy-4-[(sulfamoylamino)methyl]cyclopentyl]pyrrolo[2,3-d]pyrimidin-5-yl]ethynyl]-3-ethoxy-5-fluoro-phenyl]-3-oxa-8-azabicyclo[3,2,1]octane] | 0.013
CCOc1cc(N2CCOCC2)cc(F)c1C#Cc1cn([C@@H]2C[C@H](CNS(N)(=O)=O)[C@@H](O)[C@H]2O)c2ncnc(N)c12 [Example 112, 4-[4-[2-[4-Amino-7-[(1R,2S,3R,4R)-2,3-dihydroxy-4-[(sulfamoylamino)methyl]cyclopentyl]pyrrolo[2,3-d]pyrimidin-5-yl]ethynyl]-3-ethoxy-5-fluoro-phenyl]morpholine] | 0.015
Nc1ncnc2c1c(C#Cc1c(F)cc(N3CC[C@@H](F)C3)cc1F)cn2[C@@H]1C[C@H](CNS(N)(=O)=O)[C@@H](O)[C@H]1O [Example 115, 4-Amino-5-[2-[2,6-difluoro-4-[(3R)-3-fluoropyrrolidin-1-yl]phenyl]ethynyl]-7-[(1R,2S,3R,4R)-2,3-dihydroxy-4-[(sulfamoylamino)methyl]cyclopentyl]pyrrolo[2,3-d]pyrimidine] | 0.004
Nc1ncnc2c1c(C#Cc1cccc3c1S(=O)(=O)CC3)cn2[C@@H]1C[C@H](CNS(N)(=O)=O)[C@@H](O)[C@H]1O [Example 117, 4-Amino-7-[(1R,2S,3R,4R)-2,3-dihydroxy-4-[(sulfamoylamino)methyl]cyclopentyl]-5-[2-(1,1-dioxo-2,3-dihydrobenzothiophen-7-yl)ethynyl]pyrrolo[2,3-d]pyrimidine] | 0.0043
Nc1ncnc2c1c(C#Cc1c(F)cc(N3CCC3)cc1F)cn2[C@@H]1C[C@H](CNS(N)(=O)=O)[C@@H](O)[C@H]1O [Example 118, 4-Amino-5-[2-[4-(azetidin-1-yl)-2,6-difluoro-phenyl]ethynyl]-7-[(1R,2S,3R,4R)-2,3-dihydroxy-4-[(sulfamoylamino)methyl]cyclopentyl]pyrrolo[2,3-d]pyrimidine] | 0.0068
Nc1ncnc2c1c(C#Cc1c(F)cc(N3CCC(O)CC3)cc1F)cn2[C@@H]1C[C@H](CNS(N)(=O)=O)[C@@H](O)[C@H]1O [Example 119, 4-Amino-5-[2-[2,6-difluoro-4-(4-hydroxy-1-piperidyl)phenyl]ethynyl]-7-[(1R,2S,3R,4R)-2,3-dihydroxy-4-[(sulfamoylamino)methyl]cyclopentyl]pyrrolo[2,3-d]pyrimidine] | 0.0042
Nc1ncnc2c1c(C#Cc1cccc3c1S(=O)(=O)CCC3)cn2[C@@H]1C[C@H](CNS(N)(=O)=O)[C@@H](O)[C@H]1O [Example 123, 4-Amino-7-[(1R,2S,3R,4R)-2,3-dihydroxy-4-[(sulfamoylamino)methyl]cyclopentyl]-5-[2-(1,1-dioxo-3,4-dihydro-2H-thiochromen-8-yl)ethynyl]pyrrolo[2,3-d]pyrimidine] | 0.0091
CCOc1cccc(F)c1C#Cc1cn([C@H]2C[C@H](O)[C@@H](CNS(N)(=O)=O)O2)c2ncnc(N)c12 [Example 127, 4-Amino-5-[2-(2-ethoxy-6-fluoro-phenyl)ethynyl]-7-[(2R,4S,5R)-4-hydroxy-5-[(sulfamoylamino)methyl]tetrahydrofuran-2-yl]pyrrolo[2,3-d]pyrimidine] | 0.019
CSc1cccc(F)c1C#Cc1cn([C@@H]2C=C(CNS(N)(=O)=O)[C@@H](O)[C@H]2O)c2ncnc(N)c12 [Example 130, 4-Amino-7-[(1R,4R,5S)-4,5-dihydroxy-3-[(sulfamoylamino)methyl]cyclopent-2-en-1-yl]-5-[2-(2-fluoro-6-methylsulfanyl-phenyl)ethynyl]pyrrolo[2,3-d]pyrimidine] | 0.004
Nc1ncnc2c1c(C#Cc1ccccc1)cn2[C@H]1C[C@H](O)[C@@H](COS(N)(=O)=O)O1 [Example 134, [(2R,3S,5R)-5-[4-Amino-5-(2-phenylethynyl)pyrrolo[2,3-d]pyrimidin-7-yl]-3-hydroxy-tetrahydrofuran-2-yl]methyl sulfamate] | 0.018
Cc1ccc(Cn2cc(-c3cn([C@H]4C[C@H](O)[C@@H](COS(N)(=O)=O)O4)c4ncnc(N)c34)cn2)cc1C [Example 137, [(2R,3S,5R)-5-[4-Amino-5-[1-[(3,4-dimethylphenyl)methyl]pyrazol-4-yl]pyrrolo[2,3-d]pyrimidin-7-yl]-3-hydroxy-tetrahydrofuran-2-yl]methyl sulfamate] | 0.019
Cc1ccc(Cn2cc(-c3cn([C@@H]4C[C@H](COS(N)(=O)=O)[C@@H](O)C4)c4ncnc(N)c34)cn2)cc1C [Example 138, [(1R,2S,4R)-4-[4-Amino-5-[1-[(3,4-dimethylphenyl)methyl]pyrazol-4-yl]pyrrolo[2,3-d]pyrimidin-7-yl]-2-hydroxy-cyclopentyl]methyl sulfamate] | 0.0065
Cc1ccccc1-c1nc(-c2cn([C@H]3C[C@H](O)[C@@H](COS(N)(=O)=O)O3)c3ncnc(N)c23)cs1 [Example 139, [(2R,3S,5R)-5-[4-Amino-5-[2-(o-tolyl)thiazol-4-yl]pyrrolo[2,3-d]pyrimidin-7-yl]-3-hydroxy-tetrahydrofuran-2-yl]methyl sulfamate] | 0.017
CCS(=O)(=O)c1cccc(F)c1C#Cc1cn([C@@H]2C[C@H](CNS(N)(=O)=O)[C@@H](O)[C@H]2O)c2ncnc(N)c12 [Example 142, 4-Amino-7-[(1R,2S,3R,4R)-2,3-dihydroxy-4-[(sulfamoylamino)methyl]cyclopentyl]-5-[2-(2-ethylsulfonyl-6-fluoro-phenyl)ethynyl]pyrrolo[2,3-d]pyrimidine] | 0.009

biological target: carbonic anhydrase II (Homo sapiens (Human), UniProt P00918); experiment: Carbonic anhydrase II enzyme activity inhibition (4-NPA esterase activity); assay type: biochemical; settings: 4-nitrophenyl acetate esterase activity, absorbance at 405 nm

Structure (SMILES) | IC50 [µM]
Nc1ncnc2c1c(C#Cc1ccc(OCc3ccccc3)cc1)cn2[C@@H]1O[C@H](CNS(N)(=O)=O)[C@@H](O)[C@H]1O [Example 3, 4-Amino-5-[2-(4-benzyloxyphenyl)ethynyl]-7-[(2R,3R,4S,5R)-3,4-dihydroxy-5-[(sulfamoylamino)methyl]tetrahydrofuran-2-yl]pyrrolo[2,3-d]pyrimidine] | > 1
Nc1ncnc2c1c(C#Cc1cccc3ccccc13)cn2[C@@H]1O[C@H](CNS(N)(=O)=O)[C@@H](O)[C@H]1O [Example 6, 4-Amino-7-[(2R,3R,4S,5R)-3,4-dihydroxy-5-[(sulfamoylamino)methyl]tetrahydrofuran-2-yl]-5-[2-(1-naphthyl)ethynyl]pyrrolo[2,3-d]pyrimidine] | > 1
Nc1ncnc2c1c(-c1coc(-c3ccccc3)n1)cn2[C@@H]1O[C@H](CNS(N)(=O)=O)[C@@H](O)[C@H]1O [Example 12, 4-[4-Amino-7-[(2R,3R,4S,5R)-3,4-dihydroxy-5-[(sulfamoylamino)methyl]tetrahydrofuran-2-yl]pyrrolo[2,3-d]pyrimidin-5-yl]-2-phenyl-oxazol] | > 1
